# Reference: patent US6875761B2 (Eisai Co., Ltd., priority 1997, dated 2005)
# Structures can show the parent of a compound that is named as a salt.
row,melting point,SMILES
1,116 to 119 °C,"CCN1CCN(c2nc(-c3ccc(OCCOC)cn3)cc3ccccc23)CC1 (as salt: hydrochloride) [Example 127, 1-(1-Ethylpiperazin-4-yl)-3-[5-(2-Methoxyethoxy)Pyridin-2-yl]Isoquinoline]"
2,220 to 225 °C,CCCN1CCN(c2nc(-c3ccc(OCCO)cc3)cc3ccccc23)CC1 (as salt: hydrochloride)
3,163 to 165 °C,"COc1ccc(-c2cc3ccccc3c(N3CCN(CCO)CC3)n2)cc1 (as salt: hydrochloride) [Example 242, 1-[4-(2-hydroxyethyl)piperazin-1-yl]-3-(4-methoxyphenyl)isoquinoline Dihydrochloride]"
4,147 to 149 °C,"CCC(F)c1ccc(-c2cc3ccccc3c(N3CCN(CC)CC3)n2)cc1 (centres unmarked) (as salt: hydrochloride) [Example 5, 1-(4-ethylpiperazin-1-yl)-3-[4-(1-fluoropropyl)phenyl]isoquinoline Hydrochloride]"
5,156 to 159 °C,"CCN1CCN(c2nc(-c3ccc(C4=CCOCC4)nc3)cc3ccccc23)CC1 (as salt: oxalate) [Example 155, 3-[2-(5,6-dihydro-2H-pyran-4-yl)pyridin-5-yl]-1-(4-ethylpiperazin-1-yl)isoquinoline oxalate]"
6,129 to 130 °C,"CCN1CCN(c2nc(-c3ccc(C4CCCO4)cc3)cc3ccccc23)CC1 (centres unmarked) (as salt: hydrochloride) [Example 396, 1-(4-Ethylpiperazin-1-yl)-3-[4-(Tetrahydrofuran-2-yl)Phenyl]Isoquinoline Dihydrochloride]"
7,230 °C (dec.),"CCN1CCN(c2nc(C#Cc3ccc(OC)cc3)cc3ccccc23)CC1 (as salt: hydrochloride) [Example 178, 1-(1-Ethylpiperazin-4-Yl)-3-(4-Methoxyphenyl)Ethynylisoquinoline Dihydrochloride]"
8,127 to 129 °C,CCCS(=O)(=O)c1ccc(-c2cc3ccccc3c(N3CCN(CCO)CC3)n2)cc1 (as salt: oxalate)

# Second part, the molecule before the results:
row,SMILES,melting point
1,"CCN1CCN(c2nc(-c3ccc(C4=CCC(O)CC4)cc3)cc3ccsc23)CC1 (centres unmarked) (as salt: hydrochloride) [Example 270, 5-[4-(4-hydroxycyclohexen-1-yl)phenyl]-7-(4-ethylpiperazin-1-yl)thieno[2,3-c]pyridine hydrochloride]",168 to 170 °C
2,"CCN1CCN(c2nc(-c3ccc(COCCO)cc3)cc3ccccc23)CC1 (as salt: hydrochloride) [Example 44, 3-[4-(2-Hydroxyethoxylmethylphenyl]-1-(4-ethylpiperazin-1-Yl)Isoquinoline Hydrochloride]",129 to 131 °C
3,CCN1CCN(c2nc(C(O)c3ccccc3OC)cc3ccccc23)CC1 (centres unmarked) (as salt: oxalate),100 to 103 °C
4,"CCN1CCN(c2nc(-c3ccc4c(c3)CC(C)(CO)O4)cc3ccsc23)CC1 (centres unmarked) (as salt: hydrochloride) [Example 456, dihydrochloride]",138 to 140 °C (dec.)
5,"CCN1CCN(c2nc(-c3ccc(S(=O)(=O)CCCOC)cc3)cc3ccccc23)CC1 (as salt: hydrochloride) [Example 350, 1-(4-ethylpiperazin-1-yl)-3-{4-[(3-methoxypropyl)sulfonyl]phenyl}isoquinoline]",177.5 to 180 °C
6,COc1ccc(-c2cc3ccccc3c(N3CCOCC3)n2)cc1.Cl,137 to 139 °C
